Patent US10731159B2, “Cationic lipid” (DAIICHI SANKYO COMPANY, LIMITED, priority 2013, dated 2020)

What was measured:
Format in all cases: physicochemical
[1] = Average particle size of nucleic acid lipid particle (NICOMP 380ZLS)
Description: The particle size of the liposome was measured using Zeta Potential/Particle Sizer NICOMP™ 380ZLS (Particle Sizing Systems, LLC). In the tables, the average particle size is indicated by a volume-average particle size, and the numeric value following ±represents a deviation.

[2] = Rate of encapsulation of polynucleotide/mRNA (Quant-iT RiboGreen, with and without Triton X-100)
Description: The rate of encapsulation of the double-stranded polynucleotide was measured using Quant-iT RiboGreen RNA Assay kit (Invitrogen Corp.) according to the attached document.
(§1) Specifically, the double-stranded polynucleotide in the nucleic acid lipid particle dispersion was quantified in the presence and absence of a 0.015% Triton X-100 detergent, and the rate of encapsulation was calculated according to the following expression: {[Amount of the double-stranded polynucleotide in the presence of the detergent]−[Amount of the double-stranded polynucleotide in the absence of the detergent]}/[Amount of the double-stranded polynucleotide in the presence of the detergent]}×100(%) (3) Ratio of Double-Stranded Polynucleotide to Lipid
The rate of encapsulation of the mRNA was measured using Quant-iT RiboGreen RNA Assay kit (Invitrogen Corp.) according to the attached document.
as §1, with “mRNA” for “double-stranded polynucleotide”, “mRNA” for “Double-Stranded Polynucleotide”

[3] = Ratio of polynucleotide/mRNA to lipid (wt/wt)
Description: The nucleic acid lipid particle dispersion was mixed with acetonitrile and chloroform at a ratio of 1:1:1 and centrifuged at 15,000 rpm for 2 minutes. Then, the aqueous layer obtained as an upper layer was recovered, followed by the extraction of the double-stranded polynucleotide. The amount of the double-stranded polynucleotide in the sample was measured by ion-exchange chromatography (system: Agilent 1100 series, column: TSKgel DEAE-2SW (2.6×150 mm) (Tosoh Corp), buffer A: 20% acetonitrile, buffer B: 20% acetonitrile and 1.6 M ammonium formate, gradient (B %): 30-55% (0-20 min), flow rate: 1 mL/min, temperature: 40° C., detection: 260 nm).
The amount of the phospholipid in the nucleic acid lipid particle dispersion was measured using Phospholipid C-Test Wako (Wako Pure Chemical Industries Ltd.) according to the attached document. Specifically, the phospholipid in the sample was quantified in the presence of a 1% Triton X-100 detergent.
(§2) The amounts of cholesterol and LP in the nucleic acid lipid particle dispersion were measured by reverse-phase chromatography (system: Agilent 1100 series, column: Chromolith Performance RP-18 endcapped 100-3 monolithic HPLC-column (Merck), buffer A: 0.01% trifluoroacetic acid, buffer B: 0.01% trifluoroacetic acid and methanol, gradient (B %): 87-92% (0-10 min), flow rate: 2 mL/min, temperature: 50° C., detection: 205 nm).
(§3) The total amount of lipids was calculated from the amount of the phospholipid and the compositional ratio of lipid components constituting the liposome, and the ratio of the polynucleotide to the lipid was calculated from the aforementioned amount of the polynucleotide and the total amount of lipids according to the following expression: [Double-stranded polynucleotide concentration]/[Total lipid concentration] (wt/wt)
as §3, with “phospholipid, the amount of cholesterol, and the amount of LP,” for “phospholipid”
The amount of the double-stranded polynucleotide in a sample from the nucleic acid lipid particle dispersion was measured in the presence of a 5% Triton X-100 detergent by ion-exchange chromatography (system: Agilent 1100 series, column: DNAPac PA200 (4×250 mm) (Thermo Fisher Scientific K.K.), buffer A: 10 mM Tris, 25 mM sodium perchlorate, and 20% ethanol, pH 7.0, buffer B: 10 mM Tris, 250 mM sodium perchlorate, and 20% ethanol, pH 7.0, gradient (B %): 20-70% (0-15 min), flow rate: 0.5 mL/min, temperature: 40° C., detection: 260 nm).
as §2, with “82-92%” for “87-92%”
The total amount of lipids was calculated from the amount of the phospholipid, the amount of cholesterol, and the amount of LP, and the compositional ratio of lipid components constituting the liposome, and the ratio of the mRNA to the lipid was calculated from the “amount of the mRNA in the presence of the detergent” of the preceding paragraph (2) according to the following expression: [mRNA concentration in the presence of the detergent]/[Total lipid concentration] (wt/wt)

[4] = particles of Example 31, volume-average particle size ± deviation
[5] = particles of Example 31: DSPC:Chol:LP:PEG-C-DMA=20:48:30:2, CT-157/CT-169 double-stranded polynucleotide

Compound: CCCCC/C=C\C/C=C\CCCCCCCC(CCCCCCCCCC)OC(=O)OCCCN(C)C (stereo not drawn) [Example 8, 3-Dimethylaminopropyl(9Z,12Z)-octacosa-19,22-dien-11-yl Carbonate]
- Average particle size [1, 4]: 157 ± 46 nm
- Rate of polynucleotide encapsulation [2, 5]: 96.4%
- Ratio of polynucleotide to lipid siRNA/lipid ([3]; particles of Example 31, total lipids calculated from phospholipid, cholesterol and LP amounts (Table 4)): 0.072 wt/wt

Compound: CCCCC/C=C\C/C=C\CCCCCCCCC(CCCCCCCC/C=C\C/C=C\CCCCC)OC(=O)OCCN(C)C [Reference Example 2, 2-(Dimethylamino)ethyl(6Z,9Z,28Z,31Z)-heptatriaconta-6,9,28,31-tetraen-19-yl Carbonate, reference compound]
- Average particle size ([1]; Example 55: particles prepared as in Example 31, ± deviation): 165 ± 11 nm
- Average particle size [1, 4]: 139 ± 50 nm
- Rate of polynucleotide encapsulation ([2]; Example 55: particles prepared as in Example 31 (β-catenin double-stranded polynucleotide)): 94%
- Rate of polynucleotide encapsulation [2, 5]: 89.0%
- Ratio of polynucleotide to lipid siRNA/lipid ([3]; Example 55: particles prepared as in Example 31): 0.055 wt/wt
- Ratio of polynucleotide to lipid siRNA/lipid ([3]; particles of Example 31, total lipids calculated from phospholipid amount and compositional ratio (Table 3)): 0.104 wt/wt
